Experimental data as given in publication PMC10064330, “Reversible Dual-Covalent Molecular Locking of the 14-3-3/ERRγ Protein–Protein Interaction as a Molecular Glue Drug Discovery Approach” (Journal of the American Chemical Society, 2023).

Target: T1, 14-3-3γ/ERRγ complex (Homo sapiens, UniProt P61981+P62508)
T1 construct: made in house; host or cells: E. coli NiCo21 (DE3)
Assay: Intact mass spectrometry (QTOF-MS) crosslinking of 14-3-3γ and ERRγ
Type: biochemical
Settings: 14-3-3γ 5 μM; for consumption of apo-14-3-3γ into crosslinked ternary complex: ERRγ 25 μM, compound 50 μM, NaCNBH3 reduction, 4 h
Protocol: To further confirm the covalent crosslinking in solution, we performed intact mass spectrometry (MS) on the 14-3-3γ/ERRγ/5 and the 14-3-3γ/ERRγ/10 protein complexes. To ensure detection of the acid-labile imine-bonded complexes, the covalent imine bond was reduced in situ to the corresponding secondary amine using sodium cyanoborohydride. Samples were incrementally taken over 4 h and analyzed with high-resolution MS to determine crosslinking of the 14-3-3γ/ERRγ complex (Figure 2f–h and Figures S8 and S9). Intact MS analysis confirmed time-dependent crosslinking of the ternary complex (14-3-3γ/ERRγ/lock). […] A similar result was also observed for 10 (calculated mass: 33,080.4 Da) (Figure S11a–c).
Figure S8a. QTOF-MS analysis of 14-3-3/ERRg/5 ternary complex formation. LC-MS analysis of time-dependent crosslinking experiment of 14-3-3γ (5 µM) and ERRγ (25 µM) phosphopeptide by compound 5 (50 µM). Controls of just apo 14-3-3γ protein and protein incubated with compound 5 without ERRγ peptide are added. (Left) Chromatograms obtained for each sample after x amount of incubation. […] Calculated mass 14 -3-3γ […]
Figure S9. […] Based on the determined peak intensity of apo 14-3-3γ (peak A) and 14-3-3γ in complex with ERRg and staple 5 (peak B), the percentage of ternary complex is determined for each time point. […]
Different Scanning Fluorimetry (DSF) assays were performed using 40 µL samples containing 5 µM 14-3-3γ, 50 µM ERRγ pS179 9-mer peptide, 200 µM compound (or 1% DMSO) and 5x ProteoOrange (Lumiprobe, 5000x stock in DMSO) in 10 mM Hepes, 150 mM NaCl, 50 µM TCEP (pH 8.0). […] Fluorescence intensity was determined using excitation 470/40 nm and emission 570/20 nm filters. Based on these melting curves, the negative derivative melting curve is obtained from which the melting temperature Tm was determined. ΔTm values represent the differences in melting temperature relative to the DMSO control. All described melting temperatures are based on three independent experiments from which the average and standard deviations were determined using excel. […]

T1 sequence (P61981 whole entry, other chains not shown): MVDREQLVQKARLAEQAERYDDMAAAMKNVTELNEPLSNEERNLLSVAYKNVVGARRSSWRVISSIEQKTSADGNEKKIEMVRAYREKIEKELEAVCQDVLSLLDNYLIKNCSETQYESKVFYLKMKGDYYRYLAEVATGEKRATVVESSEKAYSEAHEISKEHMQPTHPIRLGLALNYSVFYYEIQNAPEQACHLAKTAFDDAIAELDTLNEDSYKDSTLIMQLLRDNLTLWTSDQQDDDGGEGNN

Row | SMILES | consumption of apo-14-3-3γ into crosslinked ternary complex | crosslinking of 14-3-3/ERRγ in isolation (only ERRγ phosphopeptide 10 μM, 5 50 μM) [%]
1 | CN(C)CCSSCCN(C)C(=O)c1ccc(C=O)c(F)c1 [compound 5] | near quantitative consumption of apo-14-3-3γ | ~70
2 | CN(C)CCSSCCN(C)C(=O)c1cc(Br)cc(C=O)c1 [compound 10] | complete consumption of apo-14-3-3γ was not observed | –
